Measured values from patent US20030060469A1, “Use of substances that act as cascade inhibitors of the raf/mek/erk signal cascade, for producing a medicament to treat dna and rna viruses” (priority 2000, published 2003).
Read-outs that look alike come from different tables or passages of the source.

Key:
[1] = test system: influenza A virus stem WSN-HK
[2] = test system: MDCK cells; settings: concentrations corresponding to the infection test (up to 50 μM), macroscopic examination and propidium iodide staining
[3] = test system: Borna disease virus (BDV)
[4] = mouse model; oral administration; up to a cumulating dose of 6 g/kg body weight; cited from earlier work

Row | Structure (SMILES) | reduction of the number of newly generated infectious virus particles in the cell culture medium [1] | cytotoxic effect on the cells [2] | virus foci (spreading of BDV infection) ([3]; administration of 6 μM, compared to untreated infectious reference cells) | virus foci (spreading of BDV infection) ([3]; administration of 12.5 μM) | virus foci (spreading of BDV infection) ([3]; one-time administration of 25 μM, cultivation time of 7 days) | signs of toxicity [4]
1 | N#CC(=C(N)Sc1ccccc1N)C(C#N)=C(N)Sc1ccccc1N [U0126, 1,4-diamino-2,3-dicyano-1,4-bis[2-aminophenylthio]butadiene] | approx. 80% | neither solvent nor inhibitor have a significant cytotoxic effect on the cells | no difference of the virus foci | the effect is not clear anymore | no virus foci are visible | –
2 | O=C(NOCC1CC1)c1ccc(F)c(F)c1Nc1ccc(I)cc1Cl [PD184352, 2-(2-chloro-4-iodo-phenylamino)-N-cyclopropyl-methoxy-3,4-difluoro-benzamide] | – | – | – | – | – | without showing any significant signs of toxicity
